Values after ≈ are worked out from the molar mass of the structure shown.
Assays:
Staphylococcus aureus [1] = assay: Antibacterial activity against for MRSA strain COL; assay type: functional
Staphylococcus aureus [2] = assay: Antibacterial activity against MRSA strain COL; assay type: functional
Enterococcus faecium = assay: Antibacterial activity against MDREFm; assay type: functional
Enterococcus faecalis = assay: Antibacterial activity against VREFs; assay type: functional
MecA = biological target: T1, MecA (Staphylococcus aureus, UniProt Q7DHH4); assay: Compound was tested for its binding affinity towards Penicillin-binding protein 2a (PBP2a) using […]-benzylpenicillin
T1 sequence (Q7DHH4 whole entry): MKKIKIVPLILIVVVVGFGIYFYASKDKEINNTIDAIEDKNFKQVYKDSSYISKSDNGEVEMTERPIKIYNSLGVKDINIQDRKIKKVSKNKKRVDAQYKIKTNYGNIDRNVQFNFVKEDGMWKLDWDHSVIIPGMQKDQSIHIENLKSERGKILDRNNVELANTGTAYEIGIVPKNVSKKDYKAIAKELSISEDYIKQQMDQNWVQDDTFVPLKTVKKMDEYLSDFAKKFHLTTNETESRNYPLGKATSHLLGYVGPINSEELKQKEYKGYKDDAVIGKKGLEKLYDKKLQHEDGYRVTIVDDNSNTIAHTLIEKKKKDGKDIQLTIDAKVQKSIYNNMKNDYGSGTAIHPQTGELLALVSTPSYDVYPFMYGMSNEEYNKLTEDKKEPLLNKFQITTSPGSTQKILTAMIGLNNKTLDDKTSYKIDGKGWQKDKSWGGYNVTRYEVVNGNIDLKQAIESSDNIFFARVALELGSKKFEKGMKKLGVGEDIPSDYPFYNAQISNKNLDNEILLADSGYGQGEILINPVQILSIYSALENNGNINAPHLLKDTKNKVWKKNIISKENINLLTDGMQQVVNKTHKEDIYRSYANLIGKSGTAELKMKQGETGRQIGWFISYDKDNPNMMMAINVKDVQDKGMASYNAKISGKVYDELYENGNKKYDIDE

Staphylococcus sp. = assay: (§1) Antibacterial activity against MRCNS; assay type: functional
Streptococcus pneumoniae = assay: Antibacterial activity against PRSP; assay type: functional
Staphylococcus aureus [3] = assay: Antibacterial activity against MRSA; assay type: functional
Staphylococcus = assay: as §1; assay type: functional

Row | Compound | MIC (Staphylococcus aureus [1]) [µg/mL] | MIC (Staphylococcus aureus [2]) [µg/mL] | MIC (Enterococcus faecium) [µg/mL] | MIC (Enterococcus faecalis) [µg/mL] | IC50 (MecA) [µM] | MIC (Staphylococcus sp.) [µg/mL] | MIC (Streptococcus pneumoniae) [µg/mL] | MIC (Staphylococcus aureus [3]) [µg/mL] | MIC (Staphylococcus) [µg/mL]
1 | C[C@@H](O)[C@H]1C(=O)N2C(C(=O)[O-])=C(CN(c3cccc4ccccc34)S(C)(=O)=O)[C@H](C)[C@H]12.[Na+] | > 64 |  |  |  |  |  |  |  | 
2 | C[C@@H](O)[C@H]1C(=O)N2C(C(=O)[O-])=C(CN(c3ccccc3)S(=O)(=O)c3ccc4ccccc4c3)[C@H](C)[C@H]12.[Na+] |  | 64 |  |  |  |  |  |  | 
3 | C[C@@H](O)[C@H]1C(=O)N2C(C(=O)[O-])=C(CN3c4cccc5cccc(c45)S3(=O)=O)[C@H](C)[C@H]12.[Na+] |  | 2 |  |  |  |  |  |  | 
4 | C[C@@H](O)[C@H]1C(=O)N2C(C(=O)[O-])=C(CN(c3ccc4ccccc4c3)S(C)(=O)=O)[C@H](C)[C@H]12.[Na+] |  | > 64 |  |  |  |  |  |  | 
5 | C[C@@H](O)[C@H]1C(=O)N2C(C(=O)[O-])=C(CN3C(=O)c4cccc5cccc(c45)C3=O)[C@H](C)[C@H]12.[Na+] |  | 32 | 64 | 24.3 | 3.16 | 24.3 | 1.4 | 12 | 
6 | C[C@@H](O)[C@H]1C(=O)N2C(C(=O)[O-])=C(CN3Cc4cccc5cccc(c45)S3(=O)=O)[C@H](C)[C@H]12.[Na+] |  | 16 | 40.3 | 8 | 46.9 | 16 | 0.12 | 8.5 | 
7 | C[C@@H](O)[C@H]1C(=O)N2C(C(=O)[O-])=C(CN3C(=O)c4cccc5cccc(c45)S3(=O)=O)[C@H](C)[C@H]12.[Na+] |  | 8 | 32 | 8 | 5.02 | 8 | 0.25 | 4 | 
8 | C[C@@H](O)[C@H]1C(=O)N2C(C(=O)[O-])=C(CN3C(=O)c4cccc5cccc3c45)[C@H](C)[C@H]12.[Na+] |  | 32 | 64 | 64 |  |  | 4 | 12 | 21.1
9 | C[C@@H](O)[C@H]1C(=O)N2C(C(=O)[O-])=C(CN(c3cccc4c3-c3ccccc3C4=O)S(C)(=O)=O)[C@H](C)[C@H]12.[Na+] |  | > 64 |  |  |  |  |  |  | 
10 | C[C@@H](O)[C@H]1C(=O)N2C(C(=O)[O-])=C(CN(c3ccc4ccccc4c3)S(=O)(=O)c3ccccc3)[C@H](C)[C@H]12.[Na+] |  | 64 |  |  |  |  |  |  | 
11 | C[C@@H](O)[C@H]1C(=O)N2C(C(=O)[O-])=C(CN3c4ccccc4-c4ccccc4S3(=O)=O)[C@H](C)[C@H]12.[Na+] |  | 8 |  |  |  |  |  |  | 
12 | C[C@@H](O)[C@H]1C(=O)N2C(C(=O)[O-])=C(CN3Cc4ccccc4S3(=O)=O)[C@H](C)[C@H]12.[Na+] |  | 64 |  |  |  |  |  |  | 
13 | CN[C@H](CC(C)C)C(=O)N[C@H]1C(=O)N[C@@H](CC(N)=O)C(=O)N[C@H]2C(=O)N[C@H]3C(=O)N[C@H](C(=O)N[C@H](C(=O)O)c4cc(O)cc(O)c4-c4cc3ccc4O)[C@H](O)c3ccc(c(Cl)c3)Oc3cc2cc(c3O[C@@H]2O[C@H](CO)[C@@H](O)[C@H](O)[C@H]2O[C@H]2C[C@](C)(N)[C@H](O)[C@H](C)O2)Oc2ccc(cc2Cl)[C@H]1O [VANCOMYCIN] |  |  | 20.2 (≈ 13.9 µM) | > 64 |  | 1.7 (≈ 1.17 µM) | 0.35 (≈ 0.242 µM) | 0.9 (≈ 0.621 µM) | 
14 | C[C@@H](O)[C@H]1C(=O)N2C(C(=O)[O-])=C(CN3Cc4c(ccc5ccccc45)S3(=O)=O)[C@H](C)[C@H]12.[Na+] |  | 8 | 50.8 | 8 | 38.1 | 10.6 | 0.17 | 3.4 | 
15 | C[C@@H](O)[C@H]1C(=O)N2C(C(=O)O)=C(SCCNC=N)C[C@H]12 [IMIPENEM ANHYDROUS] |  |  | > 64 | 8 (≈ 26.7 µM) | 628 | > 64 | 0.25 (≈ 0.835 µM) | > 40 | 
16 | C[C@@H](O)[C@H]1C(=O)N2C(C(=O)[O-])=C(CN3c4cccc5cccc(c45)N(C)S3(=O)=O)[C@H](C)[C@H]12.[Na+] |  | 4 | 64 | 64 | 14.8 | 7 | 1 | 1.5 | 
17 | C[C@@H](O)[C@H]1C(=O)N2C(C(=O)[O-])=C(CN3c4ccccc4CS3(=O)=O)[C@H](C)[C@H]12.[Na+] |  | 16 |  |  |  |  |  |  | 
18 | C[C@@H](O)[C@H]1C(=O)N2C(C(=O)[O-])=C(CN3C(=O)c4ccccc4S3(=O)=O)[C@H](C)[C@H]12.[Na+] |  | 16 |  |  |  |  |  |  | 
19 | C[C@@H](O)[C@H]1C(=O)N2C(C(=O)[O-])=C(CN(c3ccccc3)S(=O)(=O)c3ccccc3)[C@H](C)[C@H]12.[Na+] |  | 64 |  |  |  |  |  |  | 
20 | C[C@@H](O)[C@H]1C(=O)N2C(C(=O)[O-])=C(CN3C(=O)c4c(ccc5ccccc45)S3(=O)=O)[C@H](C)[C@H]12.[Na+] |  | 4 | 20.2 | 8 | 3.34 | 5.3 | 0.25 | 1.3 | 
